This note sets out measurements from patent US20060281174A1, “Methods for generating insulin-producing cells” (priority 2004, published 2006).

Molecules are shown by their SMILES.

The subject of this assay is Human MSCs and Pancl cells. The experiment in a line: Co-culture of human MSCs and Pancl cells in induction media with added factors to potentiate differentiation. Conditions: MSC/Pancl co-culture, induction media 1% ITS, 2% BSA in DMEM; 100 μM, 10 days. It counts as cell-based. How it is done: Design: Human MSCs from Clontech (Palo Alto, CA), passage 4-6, and Pancl cells from ATCC, passage 2-6, were used in the experiment. 5 ×10ˆ5 cells for both cells were seeded in 10 cm tissue culture treated dishes in a 1:1 combination media of DMEM containing 10% FBS and a MSC growth media purchased from CAMBREX (Walkersville, MD). After 2-3 days of culture, the media was replaced by the induction media containing1% ITS, 2% BSA in DMEM. The proteasome inhibitor, Lactocystin, was added into the media at the final concentration of 100 μM to potentiate the differentiation for 10 days.
Design: Human MSCs from Clontech, passage 4-6, and Pancl cells from ATCC, passage 2-6, were used in the experiment. 5 ×10ˆ5 cells for both cells were seeded in 10 cm tissue culture treated dishes in a 1:1 media of DMEM containing 10% FBS, and a MSC growth media purchased from CAMBREX. After 2-3 days of culture, the media was replaced by the induction media containing 1% ITS, 2% BSA in DMEM for 10 days. A growth factor cocktail containing bFGF, EGF, Exendin-4 and Nicotinamide, was added into the media to potentiate the differentiation.
Design: Human MSCs from Clontech, passage 4-6, and Pancl cells from ATCC, passage 2-6, were used in the experiment. 5 ×10ˆ5 cells for both cells were seeded in 10 cm tissue culture treated dishes in a 1:1 media of DMEM with 10% FBS, and MSC growth media purchased from CAMBREX. […]

With `CC(=O)N[C@@H](CSC(=O)[C@]1([C@@H](O)C(C)C)NC(=O)[C@H](C)[C@@H]1O)C(=O)O` [Lactocystin], the expression of insulin entry is “No formation of clusters or expression of insulin” and the formation of clusters result was “No formation of clusters”.
